PMC3914206

Experiments:
panel of 442 kinases [1] = target: T1, panel of 442 kinases (Homo sapiens, UniProt P29597); type: binding; conditions: compound concentration 10 µM; for % Ctrl, TYK2(JH1domain-catalytic): kinase TYK2(JH1domain-catalytic); for % Ctrl, TYK2(JH2domain-pseudokinase): kinase TYK2(JH2domain-pseudokinase)
T1 construct: purchased KINOMEscan
Excerpt: (§1) We assessed the selectivity of members of this scaffold using the KINOMEscan methodology across a near comprehensive panel of 442 kinases [[18,27]].

panel of 442 kinases [2] = target: T2, panel of 442 kinases (Homo sapiens, UniProt P52333); type: binding; conditions: Compound Concentration 10 µM
T2 construct: purchased KINOMEscan
T2 sequence (P52333 1-1124): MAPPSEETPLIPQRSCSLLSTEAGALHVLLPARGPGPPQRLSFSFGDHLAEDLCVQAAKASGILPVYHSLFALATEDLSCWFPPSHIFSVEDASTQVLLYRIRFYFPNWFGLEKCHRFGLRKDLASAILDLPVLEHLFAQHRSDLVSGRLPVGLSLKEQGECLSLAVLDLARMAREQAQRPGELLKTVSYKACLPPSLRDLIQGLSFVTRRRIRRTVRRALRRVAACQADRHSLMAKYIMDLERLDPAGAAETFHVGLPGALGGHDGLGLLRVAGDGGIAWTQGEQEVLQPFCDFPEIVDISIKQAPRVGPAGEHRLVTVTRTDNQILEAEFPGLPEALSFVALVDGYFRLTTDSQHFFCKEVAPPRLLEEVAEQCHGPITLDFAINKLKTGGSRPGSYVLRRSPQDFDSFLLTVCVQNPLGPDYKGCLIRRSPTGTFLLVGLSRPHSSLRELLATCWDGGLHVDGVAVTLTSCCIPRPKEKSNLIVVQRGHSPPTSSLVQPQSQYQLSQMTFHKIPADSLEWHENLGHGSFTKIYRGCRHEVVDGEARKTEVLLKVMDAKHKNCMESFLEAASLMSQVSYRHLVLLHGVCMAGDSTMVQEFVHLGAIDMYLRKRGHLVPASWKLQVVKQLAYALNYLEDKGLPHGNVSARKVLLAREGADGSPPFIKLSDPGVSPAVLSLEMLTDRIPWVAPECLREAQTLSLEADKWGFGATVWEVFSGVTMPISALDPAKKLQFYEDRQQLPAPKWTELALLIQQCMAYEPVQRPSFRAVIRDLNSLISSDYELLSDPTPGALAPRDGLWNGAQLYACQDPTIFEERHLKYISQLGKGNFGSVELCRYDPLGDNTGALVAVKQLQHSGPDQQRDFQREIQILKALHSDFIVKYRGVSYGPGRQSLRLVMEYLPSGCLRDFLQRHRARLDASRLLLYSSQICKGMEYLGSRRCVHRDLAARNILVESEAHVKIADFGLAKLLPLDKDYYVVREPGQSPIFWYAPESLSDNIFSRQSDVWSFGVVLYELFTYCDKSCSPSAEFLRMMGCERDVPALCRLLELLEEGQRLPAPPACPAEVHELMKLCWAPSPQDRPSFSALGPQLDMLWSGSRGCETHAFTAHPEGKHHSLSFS
Excerpt: as §1

T1 sequence (P29597 whole entry): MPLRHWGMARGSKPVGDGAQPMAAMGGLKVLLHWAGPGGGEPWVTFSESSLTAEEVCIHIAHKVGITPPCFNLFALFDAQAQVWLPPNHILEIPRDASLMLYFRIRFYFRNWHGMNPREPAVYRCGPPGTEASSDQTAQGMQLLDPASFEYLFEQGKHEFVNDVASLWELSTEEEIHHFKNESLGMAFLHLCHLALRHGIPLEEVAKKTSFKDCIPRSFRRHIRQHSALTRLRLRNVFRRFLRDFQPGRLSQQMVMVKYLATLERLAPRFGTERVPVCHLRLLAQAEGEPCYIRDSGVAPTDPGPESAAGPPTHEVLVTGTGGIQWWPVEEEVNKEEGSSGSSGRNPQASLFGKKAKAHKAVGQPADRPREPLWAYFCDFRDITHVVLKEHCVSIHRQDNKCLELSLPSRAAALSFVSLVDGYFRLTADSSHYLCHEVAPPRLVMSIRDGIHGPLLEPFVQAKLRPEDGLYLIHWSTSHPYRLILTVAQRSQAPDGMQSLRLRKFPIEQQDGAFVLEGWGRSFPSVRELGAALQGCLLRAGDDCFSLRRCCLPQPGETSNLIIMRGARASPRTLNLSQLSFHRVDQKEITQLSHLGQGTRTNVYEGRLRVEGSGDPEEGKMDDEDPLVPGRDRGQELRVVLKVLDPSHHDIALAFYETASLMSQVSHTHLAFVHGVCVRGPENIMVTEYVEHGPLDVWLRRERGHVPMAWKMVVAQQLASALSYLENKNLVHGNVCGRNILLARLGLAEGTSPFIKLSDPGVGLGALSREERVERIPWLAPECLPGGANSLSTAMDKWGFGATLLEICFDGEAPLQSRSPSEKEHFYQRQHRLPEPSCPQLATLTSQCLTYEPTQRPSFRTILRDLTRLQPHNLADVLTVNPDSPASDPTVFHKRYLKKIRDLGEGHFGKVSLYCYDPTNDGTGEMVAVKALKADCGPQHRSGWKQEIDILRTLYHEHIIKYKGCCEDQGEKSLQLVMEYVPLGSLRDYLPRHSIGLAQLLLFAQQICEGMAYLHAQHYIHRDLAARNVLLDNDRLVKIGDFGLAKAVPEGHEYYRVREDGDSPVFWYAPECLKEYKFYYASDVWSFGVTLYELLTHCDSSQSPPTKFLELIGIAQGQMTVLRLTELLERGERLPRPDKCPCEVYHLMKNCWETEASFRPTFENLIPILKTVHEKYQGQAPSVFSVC

COc1cc(C(=O)N2CCC(N3CCN(C)CC3)CC2)ccc1Nc1ncc2c(n1)N(C)c1ccccc1C(=O)N2C [15 (LRRK2-IN-1)]
% Ctrl, TYK2(JH1domain-catalytic) (panel of 442 kinases [1]): 52 % Ctrl | % Ctrl, TYK2(JH2domain-pseudokinase) (panel of 442 kinases [1]): 100 % Ctrl | KINOMEscan: JAK3(JH1domain-catalytic) (panel of 442 kinases [2]): 100

COc1cc(C(=O)N2CCC(N3CCN(C)CC3)CC2)ccc1Nc1ncc2c(n1)N(C1CCCC1)c1ccccc1C(=O)N2C [Compound 25, 11-cyclopentyl-2-((2-methoxy-4-(4-(4-methylpiperazin-1-yl)piperidine-1-carbonyl)phenyl)amino)-5-methyl-5H-benzo[e]pyrimido[5,4-b][1,4]diazepin-6(11H)-one]
% Ctrl, TYK2(JH1domain-catalytic) (panel of 442 kinases [1]): 100 % Ctrl | % Ctrl, TYK2(JH2domain-pseudokinase) (panel of 442 kinases [1]): 100 % Ctrl | KINOMEscan: JAK3(JH1domain-catalytic) (panel of 442 kinases [2]): 100

CCOc1cc(C(=O)N2CCC(N3CCN(C)CC3)CC2)ccc1Nc1ncc2c(n1)N(C1CCCC1)c1ccccc1C(=O)N2C [Compound 26]
% Ctrl, TYK2(JH1domain-catalytic) (panel of 442 kinases [1]): 81 % Ctrl | % Ctrl, TYK2(JH2domain-pseudokinase) (panel of 442 kinases [1]): 100 % Ctrl | KINOMEscan: JAK3(JH1domain-catalytic) (panel of 442 kinases [2]): 100
